Data set [1] deals with Botrytis cinerea. The experiment in a line: Fungicidal activity against benzimidazole-resistant Botryotinia fuckeliana at 25 ppm after 48 hr by poisoned food technique. Format: functional.
For data set [2], the system named is Botrytis cinerea. The experiment in a line: Fungicidal activity against benzimidazole-resistant Botryotinia fuckeliana at 6.2 ppm after 48 hr by poisoned food technique. The data set is classed as functional.
In data set [3] the test system is Botrytis cinerea. In words: Fungicidal activity against benzimidazole-resistant Botryotinia fuckeliana after 48 hr by poisoned food technique. Format: functional, organism-based.
In data set [4] the test system is Botrytis cinerea. In words: Fungicidal activity against benzimidazole-resistant Botryotinia fuckeliana at 200 ppm after 48 hr by poisoned food technique. The data set is classed as functional.
The subject of the next data set is Phaseolus vulgaris. In words: Phytotoxicity against Phaseolus vulgaris (kidney bean) assessed as necrosis of leaf at 100 ppm after 7 days in greenhouse conditions. The data set is classed as organism-based. The conditions noted are these: in vivo, 168 h.
Data set [5] has as its system Botrytis cinerea. The experiment in a line: Fungicidal activity against benzimidazole-resistant Botryotinia fuckeliana infected kidney bean leaf at 100 ppm after 7 days in greenhouse conditions by detached leaf test. The data set is classed as functional.
The nature of data set [6]: 1-octanol/water distribution coefficient, log P of the compound. The data set is classed as physicochemical.
Data set [7] concerns Botrytis cinerea. In words: Resistance ratio of EC50 for benzimidazole-resistant Botryotinia fuckeliana to EC50 for benzimidazole-sensitive Botryotinia fuckeliana. Format: functional.
The subject of data set [8] is Botrytis cinerea. In words: Fungicidal activity against benzimidazole-sensitive Botryotinia fuckeliana after 48 hr by poisoned food technique. Format: functional, organism-based.
Data set [9] relates to Botrytis cinerea. The experiment in a line: Ratio of DMPF EC50 to compound EC50 for benzimidazole-resistant Botryotinia fuckeliana. Format: functional.
Setting [10] is: Botrytis cinerea, 48 h, read-out: pEC50 (converted).

Molecules are shown by their SMILES. Where only a bound is given, the exact number is not on record here.

One may read the logP as the decadic logarithm of the partition coefficient of the neutral form, usually between octanol and water. As for `CCO/N=C/Nc1cc(Cl)cc(Cl)c1`, the Activity is 26% in the data set on Botrytis cinerea [1]; less than 25% in the data set on Botrytis cinerea [2]; 100% in the data set on Botrytis cinerea [4]; “<= 10%” with Phaseolus vulgaris; less than 25% in the data set on Botrytis cinerea [5]. The EC50 in the data set on Botrytis cinerea [3] (setting [10]) was 12 µM. For the same compound, the logP in [6] is 3.

As for `CCO/N=C/Nc1cc(OCC)ccc1OCC`, the Activity is 100% with Botrytis cinerea [1]; 70% in the data set on Botrytis cinerea [2]; 100% with Botrytis cinerea [4]; “Non-toxic” in the data set on Phaseolus vulgaris; less than 25% with Botrytis cinerea [5].

For `CO/N=C/Nc1cc(Cl)cc(Cl)c1`, the “Ratio EC50” value in the data set with Botrytis cinerea [7] is recorded as 10000. Besides, the EC50 in the data set on Botrytis cinerea [3] is 3 ppm; in the data set with Botrytis cinerea [8], 50 ppm.

With `CCO/N=C/Nc1ccccc1OCC`, the Activity in the data set on Botrytis cinerea [1] was 100%; with Botrytis cinerea [2], less than 25%; with Botrytis cinerea [4], 100%; with Phaseolus vulgaris, “Non-toxic”; in the data set with Botrytis cinerea [5], less than 25%.

Turning to `CCO/N=C/Nc1cc(Cl)c(Cl)cc1Cl` [N'-ETHOXY-N-(2,4,5-TRICHLOROPHENYL)FORMIMIDAMIDE], the Activity in the data set on Botrytis cinerea [1] was less than 25%; in the data set with Botrytis cinerea [2] it was less than 25%; with Botrytis cinerea [4], 26%; in the data set on Phaseolus vulgaris, “Non-toxic”; in the data set with Botrytis cinerea [5], less than 25%.

Regarding `CCO/N=C/Nc1ccc(OCC)c(OCC)c1`, the Activity in the data set with Botrytis cinerea [1] is listed as 70%; with Botrytis cinerea [2] it was 26%; in the data set with Botrytis cinerea [4], 100%; with Phaseolus vulgaris, “Non-toxic”; with Botrytis cinerea [5], 50%.

Turning to `CCO/N=C/Nc1cc(Cl)c(OCC)c(OCC)c1` [N-(3-CHLORO-4,5-DIETHOXYPHENYL)-N'-ETHOXYFORMIMIDAMIDE], the Activity is given as 100% in the data set on Botrytis cinerea [1]; 100% with Botrytis cinerea [2]; 100% with Botrytis cinerea [4]; “Non-toxic” with Phaseolus vulgaris; 100% with Botrytis cinerea [5].

`CCO/N=C/Nc1ccc(OCC)c(Cl)c1` [N-(3-CHLORO-4-ETHOXYPHENYL)-N'-ETHOXYFORMIMIDAMIDE]: the Activity with Botrytis cinerea [1] is on record as 26%; with Botrytis cinerea [2], less than 25%; in the data set with Botrytis cinerea [4] it was 100%; in the data set on Phaseolus vulgaris, “Non-toxic”; in the data set on Botrytis cinerea [5], less than 25%.

With `CCO/N=C/Nc1cc(Cl)c(OCC)c(Cl)c1` [N-(3,5-DICHLORO-4-ETHOXYPHENYL)-N'-ETHOXYFORMIMIDAMIDE], the Activity in the data set with Botrytis cinerea [1] is listed as 100%; with Botrytis cinerea [2] it was 90%; in the data set with Botrytis cinerea [4], 100%; in the data set with Phaseolus vulgaris, “Non-toxic”; with Botrytis cinerea [5], 100%.

For `CCO/N=C/Nc1c(C)cccc1C`, the Activity is given as less than 25% in the data set with Botrytis cinerea [1]; less than 25% in the data set on Botrytis cinerea [2]; less than 25% in the data set with Botrytis cinerea [4]; 11% with Phaseolus vulgaris; less than 25% in the data set with Botrytis cinerea [5].

Turning to `CCO/N=C/Nc1ccc(OCC)c(C)c1` [N'-ETHOXY-N-(4-ETHOXY-3-METHYLPHENYL)FORMIMIDAMIDE], the Activity in the data set with Botrytis cinerea [1] is on record as less than 25%; in the data set with Botrytis cinerea [2], less than 25%; with Botrytis cinerea [4], 100%; in the data set with Phaseolus vulgaris, 11%; in the data set on Botrytis cinerea [5], less than 25%.

As for `C#CCc1c(Cl)cc(N/C=N/OC)cc1Cl`, the results for the “Ratio EC50” value in the data set on Botrytis cinerea [7] and in the data set with Botrytis cinerea [9] were 10 and 600, respectively. In addition, the EC50 in the data set on Botrytis cinerea [3] was 0.005 ppm; in the data set with Botrytis cinerea [3] (setting [10]), 0.0182 µM; in the data set on Botrytis cinerea [8], 30 ppm. In addition, the Activity entry with Phaseolus vulgaris is “Non-toxic”. The compound further came in with a logP in data set [6] of 3.3.

As to `CCO/N=C/Nc1cccc(OCC)c1`, the Activity in the data set on Botrytis cinerea [1] is recorded as 26%; in the data set with Botrytis cinerea [2] it was less than 25%; with Botrytis cinerea [4] it was 100%; in the data set with Phaseolus vulgaris, “Non-toxic”; in the data set with Botrytis cinerea [5], less than 25%.

Regarding `CCO/N=C/Nc1cc(Cl)ccc1Cl`, the Activity with Botrytis cinerea [1] is less than 25%; in the data set on Botrytis cinerea [2] it was less than 25%; in the data set with Botrytis cinerea [4] it was 70%; with Phaseolus vulgaris it was “Non-toxic”; in the data set with Botrytis cinerea [5], less than 25%.

In the case of `CCO/N=C/Nc1ccc(C)c(Cl)c1` [N-(3-CHLORO-4-METHYLPHENYL)-N'-ETHOXYFORMIMIDAMIDE], the Activity is reported as 26% in the data set with Botrytis cinerea [1]; less than 25% in the data set with Botrytis cinerea [2]; 100% with Botrytis cinerea [4]; “<= 10%” in the data set on Phaseolus vulgaris; less than 25% with Botrytis cinerea [5].

For `CCO/N=C/Nc1ccc(Cl)cc1`, the Activity with Botrytis cinerea [1] was less than 25%; in the data set with Botrytis cinerea [2] it was less than 25%; in the data set with Botrytis cinerea [4], 70%; in the data set with Phaseolus vulgaris, “Non-toxic”; in the data set on Botrytis cinerea [5], less than 25%.

As for `CCO/N=C/Nc1cc(C)cc(C)c1`, the Activity is less than 25% in the data set on Botrytis cinerea [1]; less than 25% in the data set with Botrytis cinerea [2]; 90% in the data set on Botrytis cinerea [4]; “Non-toxic” with Phaseolus vulgaris; less than 25% in the data set on Botrytis cinerea [5].

As for `CCO/N=C/Nc1cccc(CC)c1`, the Activity with Botrytis cinerea [1] is on record as less than 25%; in the data set with Botrytis cinerea [2], less than 25%; with Botrytis cinerea [4], 70%; in the data set with Phaseolus vulgaris, “Non-toxic”; in the data set with Botrytis cinerea [5], less than 25%.

For `CCO/N=C/Nc1ccccc1CC`, the Activity was 100% in the data set with Botrytis cinerea [1]; 26% with Botrytis cinerea [2]; 100% in the data set with Botrytis cinerea [4]; “Non-toxic” in the data set on Phaseolus vulgaris; less than 25% in the data set on Botrytis cinerea [5].

Take `CCO/N=C/Nc1cc(Cl)c(OCC)c(Cl)c1OCC`: the Activity in the data set on Botrytis cinerea [1] is recorded as less than 25%; in the data set with Botrytis cinerea [2], less than 25%; with Botrytis cinerea [4], 50%; in the data set on Phaseolus vulgaris, “Non-toxic”; with Botrytis cinerea [5], less than 25%.

`CCO/N=C/Nc1cccc(Cl)c1`: the Activity was less than 25% in the data set on Botrytis cinerea [1]; less than 25% in the data set with Botrytis cinerea [2]; 50% in the data set with Botrytis cinerea [4]; “<= 10%” with Phaseolus vulgaris; less than 25% in the data set on Botrytis cinerea [5].

In the case of `CCO/N=C/Nc1ccc(CC)cc1`, the Activity is given as less than 25% with Botrytis cinerea [1]; less than 25% with Botrytis cinerea [2]; 26% with Botrytis cinerea [4]; “Non-toxic” in the data set on Phaseolus vulgaris; less than 25% with Botrytis cinerea [5].

For the compound `CCO/N=C/Nc1c(Cl)c(Cl)cc(Cl)c1Cl` [N'-ETHOXY-N-(2,3,5,6-TETRACHLOROPHENYL)FORMIMIDAMIDE], the Activity in the data set with Botrytis cinerea [1] was less than 25%; in the data set with Botrytis cinerea [2], less than 25%; in the data set on Botrytis cinerea [4], less than 25%; with Phaseolus vulgaris it was “Non-toxic”; in the data set with Botrytis cinerea [5], less than 25%.

On to `CCO/N=C/Nc1ccccc1Cl`, for which the Activity with Botrytis cinerea [1] is recorded as less than 25%; in the data set on Botrytis cinerea [2], less than 25%; in the data set with Botrytis cinerea [4], 100%; in the data set on Phaseolus vulgaris it was “<= 10%”; in the data set with Botrytis cinerea [5] it was less than 25%.

Regarding `CCO/N=C/Nc1ccc(Cl)cc1Cl`, the Activity in the data set on Botrytis cinerea [1] was less than 25%; with Botrytis cinerea [2], less than 25%; with Botrytis cinerea [4], 100%; in the data set on Phaseolus vulgaris, “<= 10%”; with Botrytis cinerea [5], less than 25%.

The values are drawn from ChEMBL document CHEMBL3045758, “Quantitative Structure-Activity Relationships of Fungicidal N-Phenylformamidoximes” (J Pestic Sci, 1992).
